Laboratory results: patent publication US11877990B1, “Agmatine compositions for treatment of osteoarthritis” (priority 2022, dated 2024)

Experiments:
[1] = test system: bilateral knee osteoarthritis; assay: Agmatine Administration Case 1: self-treatment and self-rating of knee osteoarthritis symptoms (WOMAC Index, VAS); assay type: in vivo, human; conditions: for VAS Score / WOMAC (% Total Score): treatment duration 12-14 months
From the text: Two study participants, each suffering from bilateral knee osteoarthritis, were consecutively self-treated as shown in the following Table 1: Treatment started with acetaminophen (as TYLENOL®, considered standard drug treatment) used as a rescue medication for the duration of their symptoms, 12 or 14 months as needed, followed by a 12-week treatment period of acetaminophen plus agmatine (taken as the G-AGMATINE® brand of agmatine sulfate). The participants self-rated their OA symptoms according to the WOMAC (Western Ontario and McMaster Universities Osteoarthritis) Index and according to the Visual Analog (pain) Scale (VAS). They had bilateral symptoms of mild-to-moderate chronic, frequent knee pain typical of knee OA according to WOMAC, score range of >25 and <100. Table 1 presents a summary of the participants' characteristics and treatment assessment at the indicated follow-up times. For the entire acetaminophen-only treatment, the dosage was 500 milligrams per caplet, and the frequency was two caplets every six hours, as needed (i.e., 1000 mg per six-hour period). For the acetaminophen plus agmatine regimen, the participants' initial dosage of acetaminophen was 500 milligrams per caplet with an initial dosage of agmatine of 450 milligrams per capsule. While the frequency of acetaminophen dosage for both participants remained two caplets every six hours, the frequency of the agmatine capsules was six capsules daily (i.e., 2,700 mg per day). […] Participant 1 eliminated acetaminophen after six weeks, and participant 2 eliminated acetaminophen after eight weeks of treatment. Thereafter, the participants were taking only agmatine and reduced the quantity of agmatine by one third (i.e., a regimen of 1,800 mg per day).

[2] = test system: bilateral knee osteoarthritis; assay: Agmatine Administration Case 2: consecutive self-treatment with acetaminophen, GCM formulation and agmatine (VAS, WOMAC); assay type: in vivo, human; conditions: agmatine taken with acetaminophen and with acetaminophen/GCM formulation
From the text: In a second study, four participants had bilateral symptoms of mild-to-moderate chronic, frequent knee pain typical of knee osteoarthritis according to a WOMAC Index score range of >25 and <100. They are compared in Table 2. Participants began taking acetaminophen (as TYLENOL®) as needed over the course of the symptom duration: Referring to FIG. 1, the four participants self-treated consecutively as follows: starting with Acetaminophen (as TYLENOL®, considered a standard drug treatment) used as a rescue medication for the duration of their symptoms for 4 to 6 months, followed by a sixty-day treatment period with acetaminophen plus a GCM formulation (i.e., glucosamine HCl, chondroitin sulfate, and methylsulfonylmethane (MSM)). The GCM formulation was followed by sixty-day period using a combination comprising acetaminophen, the GCM formulation, and agmatine (taken as the G-AGMATINE® brand of agmatine sulfate). […] Referring to FIG. 3, changes in the WOMAC ratings are shown, expressed as a percentage of total scores, at the specified time intervals after initiation of each of the acetaminophen (labeled “acet in the figure), acetaminophen and GCM formulation, and the combination acetaminophen/GCM formulation/agmatine treatment regimens. […]

[3] = humans, ingested; cited from earlier work

Structure (SMILES) | VAS Score ([1]; Participant #1, acetaminophen as needed) | WOMAC (% Total Score) ([1]; Participant #1, acetaminophen as needed (entry two)) | WOMAC (% Total Score) ([1]; Participant #2 (person one), acetaminophen as needed) | VAS Score ([1]; Participant #2, acetaminophen as needed) | Effect on improving OA symptoms (in words) [2] | Effect on OA symptoms (in words) ([1]; agmatine taken with acetaminophen, two participants) | apparent blood half-life [3]
CC(=O)Nc1ccc(O)cc1 [Acetaminophen] | 6.0 | 83.3 % Total Score | 85.4 % Total Score | 6.5 |  |  | 
N=C(N)NCCCCN [Agmatine] |  |  |  |  | unexpected synergistic effect | dramatic improvement in OA symptoms | about two
